Reference: PubChem BioAssay AID624323 (Sanford-Burnham Center for Chemical Genomics, 2012)
In brackets after ≈: the same amount, converted by molar mass. Activity calls are given as the source filed them. How the calls were made is not given here.

Test system: aqueous buffer solubility, pH 5.0/6.2/7.4
Test: aqueous buffer solubility at three pH values, ADME assay, biophysical, set 2 (AID 624323)
Conditions: at 100 µM, stronger effect = higher value
[1] = measured here: solubility at pH 5.0
[2] = measured here: solubility at pH 6.2

Row | SMILES | solubility | solubility [1] [µg/mL] | solubility [2] [µg/mL]
1 | Cc1ccc(C)c(OCCn2cc(C(=O)O)c3ccccc32)c1 | 20.1 µg/mL (≈ 65 µM) | 0.19 (≈ 0.614 µM) | 0.34 (≈ 1.1 µM)
2 | O=C(COC(=O)C12CC3CC(CC(C3)C1)C2)NCc1ccco1 | 2.6 µg/mL (inactive) (≈ 8.19 µM) | < 0.1 | 4.2 (≈ 13.2 µM)
3 | CCCc1cc(C(=O)N(C2CCCCC2)C2CCCCC2)no1 | 1.3 µg/mL (inactive) (≈ 4.08 µM) | 2.1 (≈ 6.59 µM) | 2 (≈ 6.28 µM)
4 | O=S1(=O)Nc2c(ccc3cccnc23)-c2ccccc21 | > 2.8 µg/mL (inactive) | 9.6 (≈ 34 µM) | 13.6 (≈ 48.2 µM)
5 | Cc1ccc(S(=O)(=O)C(c2ccccc2)c2c(C)noc2C)cc1 (stereo not drawn) | 16.5 µg/mL (≈ 48.3 µM) | 15.5 (≈ 45.4 µM) | 16.9 (≈ 49.5 µM)
6 | O=c1c2ccccc2[se]n1-c1ccccc1 | 5.6 µg/mL (inactive) (≈ 20.4 µM) | 5 (≈ 18.2 µM) | 6 (≈ 21.9 µM)
7 | O=C(CSc1cccc2cccnc12)N1CCCC1 | > 27 µg/mL | > 27 | > 27
8 | CCOC(=O)C(C)Oc1cccc2c(=O)n(CC(=O)Nc3ccc4c(c3)OCCO4)ccc12 (stereo not drawn) | 0.36 µg/mL (inactive) (≈ 0.796 µM) | 0.27 (≈ 0.597 µM) | 0.31 (≈ 0.685 µM)
9 | O=C1C2CC=CCC2C(=O)N1c1n[nH]c(-c2ccccc2)n1 (stereo not drawn) | > 29 µg/mL | 16 (≈ 54.4 µM) | 20.2 (≈ 68.6 µM)
10 | COc1ccc(OC)c(-c2nnc3n2N=C(c2ccc(OC)c(OC)c2)CS3)c1 | 26.1 µg/mL (≈ 63.3 µM) | 28.2 (≈ 68.4 µM) | 29.5 (≈ 71.5 µM)
11 | CCCn1ncc(CN2CCCC(C(=O)c3cccc(OC(C)C)c3)C2)c1C (stereo not drawn) | > 38 µg/mL | > 38 | > 38
12 | CC(=O)c1ccc(N2CCN(S(=O)(=O)c3ccc4c(c3)CC(=O)N4)CC2)cc1 | 3.5 µg/mL (inactive) (≈ 8.76 µM) | 3.2 (≈ 8.01 µM) | 3.7 (≈ 9.26 µM)
13 | COc1ccc(CSc2nc(C)cc(=O)[nH]2)cc1 | > 26 µg/mL | > 26 | > 26
14 | CCCN1CNc2c(c(=O)[nH]c(=S)n2CCc2ccc(OC)c(OC)c2)C1 | > 39 µg/mL | > 39 | > 39
15 | O=[N+]([O-])c1ccc(CN2CCOCCOCCN(Cc3ccc([N+](=O)[O-])cc3)CCOCC2)cc1 | 27.4 µg/mL (≈ 56.1 µM) | > 48 | > 48
16 | O=C1CCCC2=C1C1(CCCC1)N=C(Nc1nc3ccccc3o1)N2 | 0.07 µg/mL (inactive) (≈ 0.208 µM) | 0.07 (≈ 0.208 µM) | 0.09 (≈ 0.268 µM)
17 | CC(C)(C)OC(=O)NCCc1nnc(S(=O)(=O)Cc2ccc(Cl)cc2Cl)o1 | 7.4 µg/mL (inactive) (≈ 17 µM) | 14.6 (≈ 33.5 µM) | 4.8 (≈ 11 µM)
18 | O=C(COc1ccccc1Br)NCCc1nc2ccccc2[nH]1 | > 37 µg/mL | > 37 | > 37
19 | Brc1ccc2c(c1)CN1CCCC1=N2 | > 25 µg/mL | > 25 | > 25
20 | CCN1CCN(c2nc3ccccc3nc2C(C#N)C(=O)OC2CCCCC2)CC1 (stereo not drawn) | 25.8 µg/mL (≈ 63.3 µM) | > 40 | > 40
21 | Cc1cc(C)n(-c2nc(NCCCO)c3c4c(sc3n2)CCCC4)n1 | 20.7 µg/mL (≈ 57.9 µM) | 17.6 (≈ 49.2 µM) | 20.4 (≈ 57.1 µM)
22 | COc1nc(-c2ccccc2)nnc1-c1ccccc1 | 0.38 µg/mL (inactive) (≈ 1.44 µM) | 1 (≈ 3.8 µM) | 0.78 (≈ 2.96 µM)
23 | N#C/C(=C\c1ccc([N+](=O)[O-])o1)c1nc2ccccc2[nH]1 | 0.14 µg/mL (inactive) (≈ 0.5 µM) | 0.08 (≈ 0.285 µM) | 0.12 (≈ 0.428 µM)
24 | Cc1ccc(N2CCN(S(=O)(=O)N3CCCCC3)CC2)c(C)c1 | 1.6 µg/mL (inactive) (≈ 4.74 µM) | 1.8 (≈ 5.33 µM) | 1.5 (≈ 4.44 µM)
25 | O=C(O)c1cccnc1SCCc1ccccc1 | > 26 µg/mL | > 26 | > 26
26 | C=CCn1c(SCC(=O)c2ccc(O)c(O)c2)nnc1-c1ccccc1OC | 24 µg/mL (≈ 60.4 µM) | 4.5 (≈ 11.3 µM) | 5.3 (≈ 13.3 µM)
